Test system: KRAS PDC tumor spheroids (HUVEC+MSC), viability
Assay: Anticancer human tumor 254851-301-R-J1-PDC patient-derived colon carcinoma cell line growth inhibition [KRAS2]
Settings: for IC50: curve of first compound; for viability, T/C: stronger effect = lower value
Summary of the method: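 KRAS-mutant tumor cells were grown as spheroids with HUVEC endothelial cells and human MSCs as stroma. Targeted agents were tested alone and with KRAS pathway inhibitors. Doses started at or near clinical Cmax, or 10 microM, descending half-log.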

[1] = second compound 0.1 µM, first compound 0.0316 µM
[2] = second compound 0.1 µM, first compound 0.1 µM
[3] = second compound 0.1 µM, first compound 0.316 µM
[4] = second compound 0.1 µM, first compound 1 µM
[5] = second compound 0.1 µM, first compound 3.16 µM
[6] = second compound 0.1 µM, first compound 10 µM
[7] = second compound 0.316 µM, first compound 0.0316 µM
[8] = second compound 0.316 µM, first compound 0.1 µM
[9] = second compound 0.316 µM, first compound 0.316 µM
[10] = second compound 0.316 µM, first compound 1 µM
[11] = second compound 0.316 µM, first compound 3.16 µM
[12] = second compound 0.316 µM, first compound 10 µM
[13] = second compound 1 µM, first compound 0.0316 µM
[14] = second compound 1 µM, first compound 0.1 µM
[15] = second compound 1 µM, first compound 0.316 µM
[16] = second compound 1 µM, first compound 1 µM
[17] = second compound 1 µM, first compound 3.16 µM
[18] = second compound 1 µM, first compound 10 µM
[19] = second compound 3.16 µM, first compound 0.0316 µM
[20] = second compound 3.16 µM, first compound 0.1 µM
[21] = second compound 3.16 µM, first compound 0.316 µM
[22] = second compound 3.16 µM, first compound 1 µM
[23] = second compound 3.16 µM, first compound 3.16 µM
[24] = second compound 3.16 µM, first compound 10 µM
[25] = second compound 10 µM, first compound 0.0316 µM
[26] = second compound 10 µM, first compound 0.1 µM
[27] = second compound 10 µM, first compound 0.316 µM
[28] = second compound 10 µM, first compound 1 µM
[29] = second compound 10 µM, first compound 3.16 µM
[30] = second compound 10 µM, first compound 10 µM
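Note: spheroids exposed to compounds for seven days before readout.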
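Throughout, for viability, T/C: 100% = DMSO vehicle control luminescence of the spheroids.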

Structure (SMILES)	IC50 (second compound 0.1 µM) [nM]	IC50 (second compound 0.316 µM) [nM]	IC50 (second compound 1 µM) [nM]	IC50 (second compound 3.16 µM) [nM]	IC50 (second compound 10 µM) [nM]	viability, T/C [1] [%]	viability, T/C [2] [%]	viability, T/C [3] [%]	viability, T/C [4] [%]	viability, T/C [5] [%]	viability, T/C [6] [%]	viability, T/C [7] [%]	viability, T/C [8] [%]	viability, T/C [9] [%]	viability, T/C [10] [%]	viability, T/C [11] [%]	viability, T/C [12] [%]	viability, T/C [13] [%]	viability, T/C [14] [%]	viability, T/C [15] [%]	other results
COc1cc(Nc2ncc3c(n2)-c2ccc(Cl)cc2C(c2c(F)cccc2OC)=NC3)ccc1C(=O)O + COc1cc2nc(C)nc(NC(C)c3cc(N)cc(C(F)(F)F)c3)c2cc1OC1CCOC1	88.4	85.9	80.7	77.1	48.3	77.7	42	31.5	25.1	14	9.19	83.9	39.8	30.7	24.1	17	8.65	77.4	39.1	30.1	viability, T/C [16]: 24.6%; viability, T/C [17]: 18.5%; viability, T/C [18]: 8.42%; viability, T/C [19]: 74.5%; viability, T/C [20]: 38.8%; viability, T/C [21]: 30.2%; viability, T/C [22]: 25.8%; viability, T/C [23]: 20.3%; viability, T/C [24]: 10.9%; viability, T/C [25]: 58.6%; viability, T/C [26]: 34.1%; viability, T/C [27]: 28.9%; viability, T/C [28]: 25%; viability, T/C [29]: 22.4%; viability, T/C [30]: 16.4%
COc1cc2nccc(Oc3ccc(NC(=O)C4(C(=O)Nc5ccc(F)cc5)CC4)cc3)c2cc1OC + COc1cc2nc(C)nc(NC(C)c3cc(N)cc(C(F)(F)F)c3)c2cc1OC1CCOC1	> 10000	> 10000	> 10000	> 10000	2670	101	109	114	99	58	96.4	85.9	108	122	90	66.2	98.8	103	106	104	viability, T/C [16]: 90%; viability, T/C [17]: 42.1%; viability, T/C [18]: 84.4%; viability, T/C [19]: 103%; viability, T/C [20]: 104%; viability, T/C [21]: 87.7%; viability, T/C [22]: 80.6%; viability, T/C [23]: 20.9%; viability, T/C [24]: 92.7%; viability, T/C [25]: 64.5%; viability, T/C [26]: 103%; viability, T/C [27]: 90%; viability, T/C [28]: 67.2%; viability, T/C [29]: 4%; viability, T/C [30]: 90.1%
O=C(c1cc(Cc2n[nH]c(=O)c3ccccc23)ccc1F)N1CCN(C(=O)C2CC2)CC1 + COc1cc2nc(C)nc(NC(C)c3cc(N)cc(C(F)(F)F)c3)c2cc1OC1CCOC1	> 10000	> 10000	> 10000	> 10000	> 10000	111	94.5	98.5	91.8	101	97.2	94.5	103	95.1	96.1	96.4	104	101	108	101	viability, T/C [16]: 101%; viability, T/C [17]: 98.1%; viability, T/C [18]: 98.2%; viability, T/C [19]: 94.9%; viability, T/C [20]: 89.8%; viability, T/C [21]: 89.5%; viability, T/C [22]: 95.2%; viability, T/C [23]: 90.4%; viability, T/C [24]: 87.3%; viability, T/C [25]: 94.9%; viability, T/C [26]: 90%; viability, T/C [27]: 91%; viability, T/C [28]: 82.7%; viability, T/C [29]: 76.2%; viability, T/C [30]: 78%

From PubChem BioAssay AID1963868 (Molecular Pharmacology Branch, DTP, NCI, 2024)
